# Assay: Osmotic pressure of saturated solutions by vapor pressure osmometer
# Type: physicochemical
# Details: saturated solution in water at 37° C.; Model 320B Vapor Pressure Osmometer
# Protocol: The osmagent is initially present in excess and it can be any physical form such as particle, crystal, pellet, tablet, strip, film or granule. […] In the table, the osmotic pressure π, is in atmospheres, ATM. The osmotic pressure is measured in a commercially available osmometer that measures the vapor pressure difference between pure water and the solution to be analyzed, and according to standard thermodynamic principles, the vapor pressure ratio is converted into osmotic pressure difference. […] The osmometer used for the present measurements is identified as Model 320B, Vapor Pressure Osmometer, manufactured by Hewlett Packard Co., Avondale, Pa.
row,Compound,OSMOTIC PRESSURE
1,O.O.O.O.O.O.O.O=P([O-])([O-])O.[Na+].[Na+] [Sodium Phosphate Dibasic.7H2O],31 ATM
2,[Cl-].[Na+] [Sodium Chloride],356 ATM
3,O=S(=O)([O-])[O-].[K+].[K+] [Potassium Sulfate],39 ATM
4,O.O.O.O.O.O.O.O.O.O.O.O.O=P([O-])([O-])O.[Na+].[Na+] [Sodium Phosphate Dibasic.12H2O],31 ATM
5,O=P([O-])([O-])O.[Na+].[Na+] [Sodium Phosphate Dibasic Anhydrous],29 ATM
6,O=C(CO)[C@@H](O)[C@H](O)[C@H](O)CO [Fructose],355 ATM
7,[Cl-].[K+] [Potassium Chloride],245 ATM
8,OC[C@@H](O)[C@@H](O)[C@H](O)[C@H](O)CO [Mannitol],38 ATM
9,Sodium Phosphate Monobasic.H2O,28 ATM
10,O.O.O.O.O.O.O.O.O.O.O.O.O=P([O-])([O-])[O-].[Na+].[Na+].[Na+] [Sodium Phosphate Tribasic.12H2O],36 ATM

# From patent US6773721B1, “Osmotic caplet” (ALZA Corporation, priority 1992, dated 2004)
